Source: patent US8115059B1, “Gene expression modulation system for use in plants and method for modulating gene expression in plants” (University of Kentucky Research Foundation, priority 2005, dated 2012)

Tests used:
[1] = test system: ms45 mutant; settings: transgenic ms45 maize with Ms45 under EcR-based switch; cited from earlier work
[2] = target: GAL4 DBD:CfEcR fusion protein (Choristoneura fumiferana); test: cell-based or functional assay

Molecule	restoration of male fertility [1]	methoxyfenozide concentration at maximum luciferase activity, two-hybrid gene switch, tobacco protoplasts (nM methoxyfenozide) [2]
COc1cccc(C(=O)NN(C(=O)c2cc(C)cc(C)c2)C(C)(C)C)c1C [methoxyfenozide]	able to restore male fertility	–
VP16 AD:LmRXR triple mutant A62S:T81H:V123I (Lm-7) fusion protein (receptor)	–	80
